Reference: patent US20220226265A1, “METHODS OF CONTROLLING MYOCARDIAL BLOOD FLOW” (UNIVERSITY OF LOUISVILLE RESEARCH FOUNDATION, INC., priority 2021, published 2022)

Assays:
[1] = system: isolated coronary arteries; experiment: L-lactate-induced vasodilation of preconstricted isolated coronary arteries; design: species or system mouse
Method: Arterial diameter measurements: Primary and secondary branches of the left anterior descending coronary arteries and third and fourth order branches of mesenteric arteries and were dissected and kept in ice-cold isolation buffer consisting of (in mM): 134 NaCl, 6 KCl, 1 MgCl2, 2 CaCl2, 10 HEPES, 7 D-glucose, pH 7.4. Isolated arteries were used for arterial diameter measurements within 8 h after dissection. Isolated arteries were cleaned of connective tissue and cannulated on glass micropipettes mounted in a linear alignment single vessel myograph chamber (Living Systems Instrumentation, St. Albans, Vt., USA). For some experiments, the vascular endothelium was functionally ablated by passage of air through the lumen (˜30 s) during the cannulation procedure. After cannulation, the chamber was placed on an inverted microscope and arteries were equilibrated at 37° C. and intravascular pressure of 20 mmHg, maintained with a pressure servo control unit (Living Systems Instrumentation, St. Albans, Vt., USA) under continuous perfusion (3-5 ml·min^−1) of physiological saline solution (PSS) consisting of (in mM): 119 NaCl, 4.7 KCl, 1.2 KH2PO4, 1.2 MgCl2, 7 D-glucose, 24 NaHCO3, 2 CaCl2, maintained at pH 7.35-7.45 via aeration with gas mixture containing 5% CO2 and 20% O2 (balanced with N2). Following an equilibration period (45-60 min), lumenal diameter was continuously monitored and recorded with a charge coupled device (CCD) camera and edge detection software (IonOptix, Milton, Mass., USA). […] Bath O2 levels were measured using a dissolved oxygen meter (World Precision Instruments, Sarasota, Fla., USA). At the end of each experiment, the maximum passive diameter was measured in the presence of Ca^2+-free PSS containing the L-type Ca^2+ channel inhibitor nifedipine (1 μM) and adenylyl cyclase activator forskolin (0.5 μM), as described previously. Vasoconstriction is expressed as a decrease in arterial diameter relative to the maximum passive diameter at a given intravascular pressure. […]

[2] = system: coronary arterial myocytes; experiment: Perforated whole cell patch clamp of outward K+ current; type: cell-based, mouse
Method: In situ proximity ligation: Arterial myocytes were isolated from coronary and mesenteric arteries using enzymatic digestion procedures, similar to those described previously. Briefly, arteries were incubated in digestion buffer containing (in mM): 140 NaCl, 5 KCl, 2 MgCl2, 10 HEPES, 10 glucose, pH 7.4 at 37° C. for 1 min. […]
Patch clamp electrophysiology: Arterial myocytes were isolated from coronary arteries as described above. […] Total outward K^+ currents (IK) were recorded from coronary arterial myocytes using the perforated whole cell configuration of the patch clamp technique in voltage clamp mode using an Axopatch 200B patch clamp amplifier (Axon Instruments). […] K^+ currents were recorded from each cell in the absence and presence of L-lactate (10 mM) in bath solution with and without psora-4 (500 nM). […] Patch clamp data were analyzed suing Clampfit 9 software (Axon Instruments). IK is expressed as peak currents reached during the period of depolarization normalized by cell capacitance and expressed as pA/pF.

[3] = system: isolated mesenteric arteries; experiment: Vasodilation of preconstricted isolated mesenteric arteries; design: species or system mouse
Method: Arterial diameter measurements: Primary and secondary branches of the left anterior descending coronary arteries and third and fourth order branches of mesenteric arteries and were dissected and kept in ice-cold isolation buffer consisting of (in mM): 134 NaCl, 6 KCl, 1 MgCl2, 2 CaCl2, 10 HEPES, 7 D-glucose, pH 7.4. Isolated arteries were used for arterial diameter measurements within 8 h after dissection. Isolated arteries were cleaned of connective tissue and cannulated on glass micropipettes mounted in a linear alignment single vessel myograph chamber (Living Systems Instrumentation, St. Albans, Vt., USA). For some experiments, the vascular endothelium was functionally ablated by passage of air through the lumen (˜30 s) during the cannulation procedure. After cannulation, the chamber was placed on an inverted microscope and arteries were equilibrated at 37° C. and intravascular pressure of 20 mmHg, maintained with a pressure servo control unit (Living Systems Instrumentation, St. Albans, Vt., USA) under continuous perfusion (3-5 ml·min^−1) of physiological saline solution (PSS) consisting of (in mM): 119 NaCl, 4.7 KCl, 1.2 KH2PO4, 1.2 MgCl2, 7 D-glucose, 24 NaHCO3, 2 CaCl2, maintained at pH 7.35-7.45 via aeration with gas mixture containing 5% CO2 and 20% O2 (balanced with N2). Following an equilibration period (45-60 min), lumenal diameter was continuously monitored and recorded with a charge coupled device (CCD) camera and edge detection software (IonOptix, Milton, Mass., USA). Experiments were performed to examine effects of step-wise increases in intravascular pressure (20-100 mmHg), elevated [K^+]o (via isosmotic replacement of KCl for NaCl), the synthetic thromboxane A2 analogue U46619 (Tocris Bioscience, Minneapolis, Minn., USA), adenosine (Sigma Aldrich, St. Louis, Mo., USA), or L-lactate (Sigma Aldrich, St. Louis, Mo., USA). For some experiments, hypoxic bath conditions were generated by perfusion of 1 mM Na2S2O4-containing PSS aerated with 5% CO2 (balance N2; 0% O2). Bath O2 levels were measured using a dissolved oxygen meter (World Precision Instruments, Sarasota, Fla., USA). At the end of each experiment, the maximum passive diameter was measured in the presence of Ca^2+-free PSS containing the L-type Ca^2+ channel inhibitor nifedipine (1 μM) and adenylyl cyclase activator forskolin (0.5 μM), as described previously. Vasoconstriction is expressed as a decrease in arterial diameter relative to the maximum passive diameter at a given intravascular pressure. Changes in diameter (e.g., vasodilation) are normalized to differences from baseline and maximum passive diameters for each experiment.

[4] = system: isolated coronary arteries; experiment: Hypoxia-induced vasodilation of isolated pressurized coronary arteries; design: species or system mouse; settings: psora-4 500 nM; WT coronary arteries, 60 mmHg, pre-constricted with 100 nM U46619
Method: Arterial diameter measurements: Primary and secondary branches of the left anterior descending coronary arteries and third and fourth order branches of mesenteric arteries and were dissected and kept in ice-cold isolation buffer consisting of (in mM): 134 NaCl, 6 KCl, 1 MgCl2, 2 CaCl2, 10 HEPES, 7 D-glucose, pH 7.4. Isolated arteries were used for arterial diameter measurements within 8 h after dissection. Isolated arteries were cleaned of connective tissue and cannulated on glass micropipettes mounted in a linear alignment single vessel myograph chamber (Living Systems Instrumentation, St. Albans, Vt., USA). […] Following an equilibration period (45-60 min), lumenal diameter was continuously monitored and recorded with a charge coupled device (CCD) camera and edge detection software (IonOptix, Milton, Mass., USA). […] Bath O2 levels were measured using a dissolved oxygen meter (World Precision Instruments, Sarasota, Fla., USA). At the end of each experiment, the maximum passive diameter was measured in the presence of Ca^2+-free PSS containing the L-type Ca^2+ channel inhibitor nifedipine (1 μM) and adenylyl cyclase activator forskolin (0.5 μM), as described previously. Vasoconstriction is expressed as a decrease in arterial diameter relative to the maximum passive diameter at a given intravascular pressure. […]

For `C[C@H](O)C(=O)O` [L-lactate], the “vasodilation in response to external L-lactate” value ([1]; L-lactate 5-20 mM, WT coronary arteries pre-constricted with 100 nM U46619) was “step-wise vasodilation”, the L-lactate-induced vasodilation ([1]; coronary arteries isolated from Kvβ2−/− mice) was “abolished” and the “outward K+ current density” value ([2]; 10 mM L-lactate in the bath, 1-3 min) was “significant increase”. For the same molecule, the “dilation on application of L-lactate” value ([3]; L-lactate 5-20 mM, WT mesenteric arteries preconstricted with 100 nM U46619) was “robust and reversible dilation”, the L-lactate-mediated vasodilation ([3]; endothelium-denuded mesenteric arteries, 10 mM L-lactate) was “insensitive to endothelial denudation” and the L-lactate-mediated vasodilation ([3]; mesenteric arteries constricted with elevated external K+ (60 mM) rather than U46619) was “abolished”. For the same molecule, the “dilatory response to L-lactate” value ([3]; mesenteric arteries from Kvβ1.1−/− mice vs corresponding WT) was “not significantly different”, the “vasodilation in response to extracellular L-lactate” value ([3]; mesenteric arteries from SM22α-rtTA:TRE-Kvβ1 vs single transgenic control mice) was “significantly blunted vasodilation” and the “vasodilation in response to L-lactate” value ([3]; mesenteric arteries with loss of Kvβ2) was “eliminated”.
In the case of `Nc1ncnc2c1ncn2[C@@H]1O[C@H](CO)[C@@H](O)[C@H]1O` [adenosine], the “vasodilation induced by adenosine” value ([3]; adenosine 1-100 μM, Kvβ1.1−/− or Kvβ2−/− arteries vs corresponding WT) is reported as “not significantly different”.
With `O=c1ccc2c(OCCCCc3ccccc3)c3ccoc3cc2o1` [psora-4] the “effect on L-lactate-induced vasodilation” value ([1]; psora-4 500 nM, L-lactate 5-20 mM, WT coronary arteries) was “abolished”, the “attenuation of hypoxia-induced vasodilation” value [4] was about 58% and the “effect on L-lactate-induced increase in outward K+ current density” value ([2]; psora-4 500 nM, 10 mM L-lactate) was “abolished”. The “effect on vasodilation in response to L-lactate” value ([3]; psora-4 500 nM, WT mesenteric arteries) was “eliminated”.
